US8455467B2, “2-methylene-vitamin D analogs and their uses” (Wisconsin Alumni Research Foundation, priority 2011, dated 2013)

Columns and labels:
[1] = Bone calcium mobilization (serum calcium) in vitamin D-deficient rats; format: in vivo, rat; details: 0.02% Ca diet; for bone calcium mobilization (serum calcium) at 87 pmol: 87 pmol/day for 4 consecutive days; for bone calcium mobilization activity (serum calcium): 4 consecutive ip doses, overall, compared to 1,25(OH)2D3; for bone calcium mobilization (serum calcium) at 780 pmol: 780 pmol/day for 4 consecutive days
Experimental: (§1) Male, weanling Sprague-Dawley rats were placed on Diet 11 (Suda et al, J. Nutr. 100:1049, 1970) (0.47% Ca)+vitamins AEK for one week followed by Diet 11 (0.02% Ca)+vitamins AEK for 3 weeks. The rats were then switched to the same diet containing 0.47% Ca for one week followed by two weeks on the same diet containing 0.02% Ca. Dose administration began during the last week on 0.02% calcium diet. Four consecutive ip doses were given approximately 24 hours apart. Twenty-four hours after the last dose, blood was collected from the severed neck and the concentration of serum calcium determined by atomic absorption spectrometry as a measure of bone calcium mobilization. The first 10 cm of the intestine was also collected for intestinal calcium transport analysis using the everted gut sac method.

[2] = target: T1, full-length recombinant rat vitamin D receptor (Rattus norvegicus, UniProt P13053); assay: Vitamin D receptor competitive binding with [3H]-1,25(OH)2D3; details: full-length recombinant rat VDR; for Ki: 1 nM radioligand, read-out: Ki, competition with [3H]-1,25(OH)2D3 for binding to the vitamin D receptor; for binding affinity to the receptor compared to 1,25-(OH)2D3: in words
T1 construct: Full-length recombinant rat receptor was expressed in E. coli BL21 (DE3) Codon Plus RIL cells; His tag (histidine tag) (C); made in house; host or cells: E. coli BL21 (DE3) Codon Plus RIL
T1 sequence (P13053 1-423): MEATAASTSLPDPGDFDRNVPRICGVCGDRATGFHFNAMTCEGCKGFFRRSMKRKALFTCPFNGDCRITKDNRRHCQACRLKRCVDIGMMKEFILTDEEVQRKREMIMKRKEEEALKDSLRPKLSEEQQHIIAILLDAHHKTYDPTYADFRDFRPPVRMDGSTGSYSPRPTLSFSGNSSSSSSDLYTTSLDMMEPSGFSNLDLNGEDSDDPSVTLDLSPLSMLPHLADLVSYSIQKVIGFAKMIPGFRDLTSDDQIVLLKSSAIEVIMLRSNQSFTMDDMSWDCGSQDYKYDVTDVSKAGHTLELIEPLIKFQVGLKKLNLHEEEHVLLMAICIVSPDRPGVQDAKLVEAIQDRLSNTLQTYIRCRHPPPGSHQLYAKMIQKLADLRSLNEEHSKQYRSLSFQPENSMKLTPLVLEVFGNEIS
Experimental: Full-length recombinant rat receptor was expressed in E. coli BL21 (DE3) Codon Plus RIL cells and purified to homogeneity using two different column chromatography systems. The first system was a nickel affinity resin that utilizes the C-terminal histidine tag on this protein. The protein that was eluted from this resin was further purified using ion exchange chromatography (S-Sepharose Fast Flow). Aliquots of the purified protein were quick frozen in liquid nitrogen and stored at −80° C. until use. For use in binding assays, the protein was diluted in TEDK50 (50 mM Tris, 1.5 mM EDTA, pH7.4, 5 mM DTT, 150 mM KCl) with 0.1% Chaps detergent. The receptor protein and ligand concentration was optimized such that no more than 20% of the added radiolabeled ligand was bound to the receptor.
Radiolabeled and unlabeled ligands were added to 100 mcl of the diluted protein at a final ethanol concentration of ≦10%, mixed and incubated overnight on ice to reach binding equilibrium. The following day, 100 mcl of hydroxylapatite slurry (50%) was added to each tube and mixed at 10-minute intervals for 30 minutes. The hydroxylapaptite was collected by centrifugation and then washed three times with Tris-EDTA buffer (50 mM Tris, 1.5 mM EDTA, pH 7.4) containing 0.5% Titron X-100. After the final wash, the pellets were transferred to scintillation vials containing 4 ml of Biosafe II scintillation cocktail, mixed and placed in a scintillation counter. Total binding was determined from the tubes containing only radiolabeled ligand.

[3] = tested on: Human promyelocytic leukemia (HL60) cells; assay: HL-60 cell differentiation (nitro blue tetrazolium reduction); format: cell-based; details: for EC50: 4 days treatment, NBT reduction; for potency on HL-60 cell differentiation compared to 1,25(OH)2D3: in words
Experimental: Serial dilutions were prepared so that a range of drug concentrations could be tested without changing the final concentration of ethanol 0.2%) present in the cell cultures.
Human promyelocytic leukemia (HL60) cells were grown in RPMI-1640 medium containing 10% fetal bovine serum. The cells were incubated at 37° C. in the presence of 5% CO2.
HL60 cells were plated at 1.2×10^5 cells/ml. Eighteen hours after plating, cells in duplicate were treated with drug. Four days later, the cells were harvested and a nitro blue tetrazolium reduction assay was performed (Collins et al., 1979; J. Exp. Med. 149:969-974). The percentage of differentiated cells was determined by counting a total of 200 cells and recording the number that contained intracellular black-blue formazan deposits. Verification of differentiation to monocytic cells was determined by measuring phagocytic activity (data not shown).

[4] = Intestinal calcium transport (everted gut sac method) in vitamin D-deficient rats; format: in vivo, rat; details: 0.02% Ca diet, 4 consecutive ip doses, compared to 1,25(OH)2D3
Experimental: as §1

| SMILES | bone calcium mobilization (serum calcium) at 87 pmol [1] | bone calcium mobilization activity (serum calcium) [1] | Ki [2] [nM] | binding affinity to the receptor compared to 1,25-(OH)2D3 [2] | EC50 ([3]; Homo sapiens, HL-60, 96 h) [nM] | potency on HL-60 cell differentiation compared to 1,25(OH)2D3 [3] | bone calcium mobilization (serum calcium) at 780 pmol [1] | intestinal calcium transport activity [4] | EC50 [3] [nM] |
| --- | --- | --- | --- | --- | --- | --- | --- | --- | --- |
| C=C1CC(=C)[C@H](O)C/C1=C/C=C1\CCC[C@]2(C)[C@@H]([C@H](C)CCCC(C)(C)O)CC[C@@H]12 [1D-QM, (20R)-25-hydroxy-2-methylene-vitamin D3] | little or no mobilization of bone calcium | less potent than the native hormone | 0.9 | about the same affinity | > 100 | almost as potent as 1,25(OH)2D3 |  |  |  |
| C=C1CC(=C)[C@H](O)C/C1=C/C=C1\CCC[C@]2(C)[C@@H]([C@@H](C)CCCC(C)(C)O)CC[C@@H]12 [1D-QMS, (20S)-25-hydroxy-2-methylene-vitamin D3] |  | about the same potency as the native hormone | 0.2 | about the same affinity | 10 | almost as potent as 1,25(OH)2D3 | significant mobilization of bone calcium | about equivalent to 1,25(OH)2D3 |  |
| C=C1/C(=C\C=C2/CCC[C@]3(C)[C@@H]([C@H](C)CCCC(C)(C)O)CC[C@@H]23)C[C@@H](O)C[C@@H]1O [1α,25-dihydroxyvitamin D3, reference compound] | significant increases in serum calcium | increased serum calcium levels |  |  |  |  | significant increases in serum calcium |  | 3 |
